Laboratory results as given in patent publication US11357246B2, “High intensity sweeteners” (Firmenich Incorporated, priority 2015, dated 2022).

Experiments:
[1] = Paired comparison testing (2-AFC) of sweet intensity versus 300 ppm Rebaudioside A by trained panelists; format: in vivo; details: for Sample selected as sweeter by panelists, Total: LSB pH ~7.1; for Sweetness compared with 300 ppm Rebaudioside A (2-AFC): 0.25 mL sample, LSB pH ~7.1, 0% ethanol
Procedure: Paired comparison tests (2-Alternative Forced Choice difference tests, i.e., 2-AFC) were used to determine sweet intensity equivalence between samples prepared with Rebaudioside A and the test sweet compound. Trained external panelists were used for the taste tests.
2-AFC tests, compound solutions were tested against 300 ppm Rebaudioside A to determine how they matched in sweet intensity. Panelists tasted both samples and indicated which sample was sweeter in each pair. Panelists rinsed their mouths with water prior to starting any test. Samples were presented to panelists in randomized, counterbalanced pairs and were labeled with 3-digit blinding codes. Panelists rinsed with water between samples as well as between pairs. There was a 90 second delay to clear the mouth of any tastes after each pair evaluation. Three replicates of each test were performed.
The 2-AFC data was analyzed to determine significant differences between 300 ppm Rebaudioside A and compound solutions using a probability table for a two-tailed test (alpha=0.05).
The paired comparison testing was performed using a 0.25 mL sample size, and all samples were made with Low Sodium Buffer (LSB) pH ˜7.1 and contain 0% ethanol.

hT1R2/hT1R3 = target: T1, hT1R2/hT1R3 (Homo sapiens, UniProt Q7RTX0+Q8TE23); assay: HTS-Sweet: FLIPR calcium fluorometric imaging assay in cells stably expressing the human sweet taste receptor and a promiscuous G protein; format: cell-based; details: FLIPR, Fluo-4AM, 10 concentrations 0.4 μM to 200 μM in duplicates; read-out: Compound EC50s for hT1R2/hT1R3
T1 construct: expressed in transfected cells; parental cells lack the receptor
T1 sequence (Q8TE23 20-839): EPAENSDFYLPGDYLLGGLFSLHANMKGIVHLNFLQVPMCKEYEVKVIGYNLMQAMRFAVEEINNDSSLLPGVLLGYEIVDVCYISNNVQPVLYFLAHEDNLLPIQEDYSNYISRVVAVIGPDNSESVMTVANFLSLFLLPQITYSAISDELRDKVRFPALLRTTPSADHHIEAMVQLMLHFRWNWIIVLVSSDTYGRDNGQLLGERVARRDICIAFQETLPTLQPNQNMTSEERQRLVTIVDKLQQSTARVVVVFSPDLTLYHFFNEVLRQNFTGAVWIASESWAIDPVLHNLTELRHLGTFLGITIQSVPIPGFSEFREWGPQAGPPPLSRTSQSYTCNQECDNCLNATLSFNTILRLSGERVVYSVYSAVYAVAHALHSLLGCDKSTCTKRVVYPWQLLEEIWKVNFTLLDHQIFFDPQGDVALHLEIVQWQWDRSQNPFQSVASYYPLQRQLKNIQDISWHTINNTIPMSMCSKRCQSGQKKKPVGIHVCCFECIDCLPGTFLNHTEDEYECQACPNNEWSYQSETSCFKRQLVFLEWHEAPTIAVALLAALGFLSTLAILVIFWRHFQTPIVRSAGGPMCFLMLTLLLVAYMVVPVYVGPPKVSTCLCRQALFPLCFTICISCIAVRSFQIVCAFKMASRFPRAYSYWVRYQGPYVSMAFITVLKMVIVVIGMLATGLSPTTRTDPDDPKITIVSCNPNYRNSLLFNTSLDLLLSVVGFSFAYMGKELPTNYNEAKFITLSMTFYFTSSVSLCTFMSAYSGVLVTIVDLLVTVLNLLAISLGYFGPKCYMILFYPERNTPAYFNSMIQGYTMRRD
T1 sequence (Q7RTX0 21-852): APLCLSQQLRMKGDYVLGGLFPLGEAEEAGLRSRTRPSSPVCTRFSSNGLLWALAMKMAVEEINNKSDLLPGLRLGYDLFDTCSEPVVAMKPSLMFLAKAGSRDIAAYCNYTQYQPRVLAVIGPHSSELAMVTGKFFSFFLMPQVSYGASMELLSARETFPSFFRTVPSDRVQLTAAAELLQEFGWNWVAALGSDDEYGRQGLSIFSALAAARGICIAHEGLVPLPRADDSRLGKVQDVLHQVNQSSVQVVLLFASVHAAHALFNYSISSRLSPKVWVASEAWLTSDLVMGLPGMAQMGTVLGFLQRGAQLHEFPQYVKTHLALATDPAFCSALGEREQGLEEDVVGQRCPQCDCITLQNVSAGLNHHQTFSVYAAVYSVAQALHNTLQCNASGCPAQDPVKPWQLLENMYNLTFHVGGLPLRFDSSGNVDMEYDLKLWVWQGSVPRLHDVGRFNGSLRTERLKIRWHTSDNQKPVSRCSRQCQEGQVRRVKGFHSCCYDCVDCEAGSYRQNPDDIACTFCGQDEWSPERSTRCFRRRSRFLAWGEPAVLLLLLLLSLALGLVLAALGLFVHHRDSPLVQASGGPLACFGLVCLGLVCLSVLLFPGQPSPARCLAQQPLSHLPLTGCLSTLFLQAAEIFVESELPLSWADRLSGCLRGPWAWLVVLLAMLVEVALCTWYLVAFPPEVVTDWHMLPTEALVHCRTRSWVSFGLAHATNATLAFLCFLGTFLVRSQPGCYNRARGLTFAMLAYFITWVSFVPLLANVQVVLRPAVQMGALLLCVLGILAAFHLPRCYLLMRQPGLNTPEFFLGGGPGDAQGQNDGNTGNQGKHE
Procedure: Compound activity (EC50) was determined using an automated fluorometric imaging assay on a FLIPR instrument (Fluorometric […] Plate Reader, Molecular Devices, Sunnyvale, Calif.). Cell stably expressing the human sweet taste receptor and a promiscuous G protein were seeded into 384-well plates (at approximately 40,000 cells per well). Cells were grown for 24 hours at 37° C. Cells were then loaded with the calcium dye Fluo-4AM (Molecular Probes, Eugene, Oreg.), 4 μM in a phosphate buffered saline (D-PBS) (Invitrogen, Carlsbad, Calif.), for 1 hour at room temperature. After replacement with 25 μl D-PBS, stimulation was performed in the FLIPR instrument and at room temperature by the addition of 25 μl D-PBS supplemented with different stimuli at concentrations corresponding to twice the desired final level. Receptor activity was quantified by determining the maximal fluorescence increases (using a 480 nm excitation and 535 nm emission) after normalization to basal fluorescence intensity measured before stimulation.
For dose-responses analysis, stimuli were presented in duplicates at 10 different concentrations ranging from 0.4 μM to 200 μM. EC50 s were determined using a non-linear regression algorithm, where the Hill slope, bottom asymptotes and top asymptotes were allowed to vary.

[2] = 300 ppm Compound 1 vs 300 ppm Rebaudioside A, n = 45 (15 panelists × 3 reps), p-value 0.072
[3] = 250 ppm Compound 18 vs 300 ppm Rebaudioside A, n = 36 (12 panelists × 3 reps), p-value 0.681
[4] = 300 ppm Compound 18 vs 300 ppm Rebaudioside A, n = 42 (14 panelists × 3 reps), p-value 0.044

| SMILES | Sample selected as sweeter by panelists, Total [1, 2] | Sweetness compared with 300 ppm Rebaudioside A (2-AFC) ([1]; test compound at 300 ppm) | Sample selected as sweeter by panelists, Total [1, 3] | Sample selected as sweeter by panelists, Total [1, 4] | Sweetness compared with 300 ppm Rebaudioside A (2-AFC) ([1]; test compound at 250 ppm) | EC50 (hT1R2/hT1R3) [µM] |
| --- | --- | --- | --- | --- | --- | --- |
| C[C@H](CC[C@@H](O[C@@H]1O[C@H](CO)[C@@H](O)[C@H](O)[C@H]1O[C@@H]1O[C@H](CO)[C@@H](O)[C@H](O)[C@H]1O)C(C)(C)O)C1CC[C@@]2(C)C3CC=C4C(CC[C@H](O[C@@H]5O[C@H](CO)[C@@H](O[C@@H]6O[C@H](CO)[C@@H](O)[C@H](O)[C@H]6O)[C@H](O)[C@H]5O)C4(C)C)[C@]3(C)[C@H](O)C[C@]12C (stereo partly shown) [Compound 1] | 16 | not significantly different in sweetness | – | – | – | – |
| C[C@H](CC[C@@H](O[C@@H]1O[C@H](CO)[C@@H](O)[C@H](O)[C@H]1O[C@@H]1O[C@H](CO)[C@@H](O)[C@H](O[C@@H]2O[C@H](CO)[C@@H](O)[C@H](O)[C@H]2O)[C@H]1O)C(C)(C)O)C1CC[C@@]2(C)C3CC=C4C(CC[C@H](O[C@@H]5O[C@H](CO)[C@@H](O)[C@H](O[C@@H]6O[C@H](CO)[C@@H](O)[C@H](O)[C@H]6O)[C@H]5O)C4(C)C)[C@]3(C)[C@H](O)C[C@]12C (stereo partly shown) [Compound 18] | – | significantly sweeter | 20 | 28 | not significantly different in sweetness | – |
| C[C@H](CC[C@@H](O[C@@H]1O[C@H](CO)[C@@H](O[C@@H]2O[C@H](CO)[C@@H](O)[C@H](O)[C@H]2O)[C@H](O)[C@H]1O[C@@H]1O[C@H](CO)[C@@H](O)[C@H](O)[C@H]1O)C(C)(C)O)C1CC[C@@]2(C)C3CC=C4C(CC[C@H](O)C4(C)C)[C@]3(C)[C@H](O)C[C@]12C (stereo partly shown) [Compound 35] | – | – | – | – | – | 17 to 30 |
| C=C1C[C@@]23CC[C@H]4[C@@](C)(CCC[C@@]4(C)C(=O)O[C@@H]4O[C@H](CO)[C@@H](O)[C@H](O)[C@H]4O)[C@@H]2CC[C@]1(O[C@@H]1O[C@H](CO)[C@@H](O)[C@H](O[C@@H]2O[C@H](CO)[C@@H](O)[C@H](O)[C@H]2O)[C@H]1O[C@@H]1O[C@H](CO)[C@@H](O)[C@H](O)[C@H]1O)C3 [Rebaudioside A, reference compound] | 29 | – | 16 | 14 | – | – |
